The test system of series [1] is qPCR spiked with 5×104 copies λ phage DNA. The format is biochemical. As to conditions: 1 μL candidate in 11 μL total; for Avg Cq: N.D. = not detected within 40 cycles; for ΔCq: minus the No additive control. The protocol: (§1) Heating and real-time imaging were performed on the Bio-Rad CFX-96 Touch Real-Time PCR Detection System by heating to 95° C. for 5 min, cycling 40 times between 95° C. for 15 s, 60° C. for 15 s, and 72° C. for 20 s, and taking a melt-curve analysis. For the E. coli DNA dilution experiment, qPCR was run for 60 cycles. Fluorescence readings were taken at the end of each extension step. Quantification cycle (Cq) was determined when the software's automated baseline corrected fluorescence reached 200 RFU.
Criterion 1a was investigated directly by performing qPCR and LAMP reactions. Reactions were spiked with λ phage DNA, diluted up to 10 μL, and an additional 1 μL of different wash buffer candidates was added to a total of 11 μL. […] As an experimental control, a “No Additive” condition was tested, which was a 10 μL reaction with optimized reaction conditions and no inhibitors. To control for the effects of a 1 μL dilution on the reaction, a “Water” condition which was an 11 μL reaction with no inhibitors was also tested.

The conditions of series [2]: cited from earlier work.
Series [3] relates to LAMP spiked with 5×104 copies λ phage DNA. As to the kind of experiment: LAMP reaction inhibition by dilutions of NA extraction kit buffers. The series is classed as biochemical. The note with it: for Avg TTP: 9 replicates, non-detects assigned 46.7 min. The protocol: LAMP primers (Integrated DNA Technologies (IDT), Coralville, Iowa, USA) were designed, ordered, and added at NEB's recommended concentrations of […] FIP/BIP, 0.2μM F3/B3, and […] LoopF/B.
Each 96-well plate was sealed and briefly spun. […] Time-to-positive (TTP) was determined when the software's automated baseline corrected fluorescence reached 1000 RFU.
Confidence intervals were calculated assuming the populations to be normally distributed and using a t statistic. For buffer inhibition experiments, statistical analysis was performed by a 1-tailed unequal variance t-test (N=9) comparing the water condition (control) to each buffer concentration (H1: the mean is delayed). For the subsequent experiments, a 2-tailed unequal variance t-test (H1: the means are different) was used. […] Although this approach introduces some bias into the analysis, it is believed this is the best representation for handling non-detects (other alternatives include excluding the non-detects or assigning non-detect values to the average of those that amplified).
These two commercial kits in particular were chosen because they both utilize minimal protocols (lysis, wash, elute) with no added steps (e.g. bacterial pellet spins, proteinase K, lysozyme, DNase/RNase, filtration, etc.). Specifically, an experiment was conducted to identify the concentration at which each buffer inhibits qPCR and LAMP.

Series [4] relates to qPCR spiked with 5×104 copies λ phage DNA. As to the kind of experiment: qPCR reaction inhibition by dilutions of NA extraction kit buffers. The series is classed as biochemical. As to conditions: for Avg Cq: 9 replicates, non-detects assigned 40 cycles. As to the method:
as §1, with “qPCR reactions contained 1× Bio-Rad SsoFast Supermix (1725201, Bio-Rad), PCR primers (IDT) at […] each, and were supplemented with nuclease-free water up to 10 μL. Each 96-well plate (thin-wall clear well, HSP9641, Bio-Rad) was sealed (Microseal B, MSB1001, Bio-Rad) and briefly spun in a Mini Plate Spinner Centrifuge (14-100-141, Fisher Scientific). Heating” for “Heating”
Confidence intervals were calculated assuming the populations to be normally distributed and using a t statistic. For buffer inhibition experiments, statistical analysis was performed by a 1-tailed unequal variance t-test (N=9) comparing the water condition (control) to each buffer concentration (H1: the mean is delayed). For the subsequent experiments, a 2-tailed unequal variance t-test (H1: the means are different) was used. Non-detects were assigned the maximum possible Cq measurement of 40 cycles or a TTP of 46.7 min to indicate the lack of amplification. Although this approach introduces some bias into the analysis, it is believed this is the best representation for handling non-detects (other alternatives include excluding the non-detects or assigning non-detect values to the average of those that amplified).
These two commercial kits in particular were chosen because they both utilize minimal protocols (lysis, wash, elute) with no added steps (e.g. bacterial pellet spins, proteinase K, lysozyme, DNase/RNase, filtration, etc.). Specifically, an experiment was conducted to identify the concentration at which each buffer inhibits qPCR and LAMP. First, buffers were added at half-log dilutions (from 10% down to 0.032%) into λ phage spiked qPCR or LAMP reactions (1 μL diluted buffer, 1 μL template, 8 μL reaction mix).
Background: Real-time PCR tracks product formation cycle by cycle.

Setting [5] is: 0.03% buffer vs water condition (0%).
[6] abbreviates: 0.1% buffer vs water condition (0%).
Setting [7] is: 0.32% buffer vs water condition (0%).
Setting [8] is: 1% buffer vs water condition (0%).
Setting [9] is: 3.2% buffer vs water condition (0%).
Setting [10] is: 10% buffer vs water condition (0%).

Structures are written as SMILES. Read-outs that look alike come from different tables or passages of the source.

With `CCCCCCCCCCCO` [1-undecanol], in series [1], the “Avg Cq” value was found to be 19.67 cycles and the ΔCq is reported as −0.42 cycles. In series [2], the “Solubility of TPW Candidate in water” value was 0.0015 g/100 mL and the “Solubility of water in TPW Candidate” value is 3.4 g/100 g.
Regarding `CCO` [Ethanol, ethanol], the “Avg Cq” value is recorded as 25.30 cycles in series [1]; 20.1 cycles in series [4] (0.03% buffer in qPCR); 20.2 cycles in series [4] (0.1% buffer in qPCR); 20.2 cycles in series [4] (0.32% buffer in qPCR); 20.1 cycles in series [4] (1% buffer in qPCR); 20.6 cycles in series [4] (3.2% buffer in qPCR). The “Avg Cq” value in series [4] (10% buffer in qPCR) is 27.5 cycles. The ΔCq was 5.21 cycles in series [1]; 0.0 cycles in series [4] (setting [5]); 0.1 cycles in series [4] (setting [6]); 0.1 cycles in series [4] (setting [7]); 0.0 cycles in series [4] (setting [8]); 0.5 cycles in series [4] (setting [9]). Moreover, the ΔCq in series [4] (setting [10]) is on record as 7.4 cycles. Besides, the “Avg TTP” value in series [3] (0.03% buffer in LAMP) stood at 6.4 min; in series [3] (0.1% buffer in LAMP), 6.5 min; in series [3] (0.32% buffer in LAMP), 6.6 min; in series [3] (1% buffer in LAMP), 6.9 min; in series [3] (3.2% buffer in LAMP), 9.7 min; in series [3] (10% buffer in LAMP), 46.7 min. The ΔTTP is 0.1 min in series [3] (setting [5]); 0.1 min in series [3] (setting [6]); 0.2 min in series [3] (setting [7]); 0.5 min in series [3] (setting [8]); 3.3 min in series [3] (setting [9]); 40.3 min in series [3] (setting [10]). For the same compound, in series [2] (in words), the “Solubility of TPW Candidate in water” value is “Miscible”. The “Solubility of water in TPW Candidate” value in series [2] (in words) is reported as “Miscible”.

The values above are taken from patent publication US11866695B2, “Methods and systems and related compositions for mixtures separation with a solid matrix” (CALIFORNIA INSTITUTE OF TECHNOLOGY, priority 2019, dated 2024).
